Measurements taken from patent publication US20070117182A1, “Nucleic acids conferring transcriptional responsiveness on the RANKL gene promoter and uses thereof” (Wisconsin Alumni Research Foundation, priority 2005, published 2007).

Legend:
[1] = test system: D5 region of the RANKL gene (RL-CCL); assay: pTK-RL(D5) luciferase reporter in ST2 cells; assay type: cell-based, mouse; conditions: 24 hours, agent alone
Method: FIG. 6. Transcriptional activity of the D5 regions of the RANKL gene in the context of the TK promoter. Sequence surrounding the D5 region (1072 bp) was cloned into the pTK-luciferase vector and termed pTK-RL(D5). […] Cells were harvested after 24 hours and luciferase activity assessed. B) ST2 cells were transfected as in A above but without the VDR expression vector and evaluated as in A. C) COS-7 cells were transfected and evaluated as in A above. Luciferase was normalized using beta-gal activity. Data represent the mean of triplicate determinations (SEM). The pTK-luc control vector was unresponsive to any of the inducers (see FIG. 9). *, p<0.05 vs no treatment control.
FIG. 11. […] A) Coordinates of the RL-D5 and the RL-D5b regions in the mouse RANKL upstream region. ST2 cells were transfected with either B) pTK-luc or pTK-mRL-D5 or C) pTK-luc and pTK-mRL-D5b and then treated with the indicated inducers. Cells were harvested after 24 hours and evaluated for luciferase activity. Luciferase was normalized using β-gal activity. Data represent the mean of triplicate determinations (SEM). *, p<0.05 vs no treatment control. **, p<0.05 vs no treatment and 1,25(OH)2D3 treated controls.
The activity of an enhancer must be evaluated in the context of its local environment, preferentially in the context of both other enhancers and its native promoter. In the case of the RANKL gene, however, this is clearly not possible due to the numbers and the distant locations of the potential regulatory regions. To tackle this problem, the inventors isolated approximately 800 to 1100 bp fragments of each region (D1 to D5) as identified through the ChIP/Chip analysis, cloned each into a luciferase expression vector under the control of a viral thymidine kinase (TK) minimal promoter, and explored the 1,25(OH)2D3- and GC-inducible activity of each following transfection into ST2 cells. […] Nevertheless, positive results provide added support for the potential regulatory capabilities of an individual DNA fragment even when examined in isolation. […] This induction was magnified by the addition of a VDR expression vector (FIG. 6a), but was also evident in the absence of such addition (FIG. 6b). […] To ensure that the viral TK promoter background was not contributing to our evaluation, the inventors cloned the mouse RANKL promoter (−100 to +65) into pGL3, inserted RL D5 and evaluated its activity in ST2 cells as well.
Based upon the above data, the inventors explored the possibility that similar to 1,25(OH)2D3, forskolin, PGE2 and OSM might be capable of activating transcription via the D5 fragment of the RANKL gene. […] Cells were harvested 24 hours later and evaluated for luciferase activity as in the previous experiments. […]

[2] = test system: D5 region of the human RANKL gene; assay: ChIP analysis of the D5 region of the human RANKL gene in MG-63 cells; assay type: cell-based
Method: FIG. 14. […] Cells were treated with the indicated inducers for the periods identified and isolated RNA subjected to PCR analysis for Cyp24, RANKL and b-actin. B) 1,25(OH)2D3 induces VDR binding to the conserved D5 region of the human RANKL gene in MG-63 cells. […] Two different primer sets to the human D5 region were used to assess VDR binding. VDR binding was also observed at D3-D1 but not in intervening regions or at the TSS. C) The human D5 region is transcriptionally active in MG-63 cells. […] Luciferase activity was analysed 24 hours later. […] Data are the average of triplicate determinations, SEM.
Input represents DNA abundance prior to precipitation with either antibodies to the VDR or non specific IgG.

[3] = test system: OPN promoter; assay: ChIP of VDR/RXR at OPN promoter in ST2 cells; assay type: cell-based, mouse; conditions: 10^-7 M, 6 hours
Method: (§1) FIG. 3. ChIP/chip analysis of the RANKL gene locus. A) ChIP: ST2 cells were treated with either vehicle or 1,25(OH)2D3 (10^−7 M) and after 6 hours subjected to ChIP using antibodies to VDR, RXR and IgG. Precipitated DNA was analyzed for the presence of either the Cyp24 or the OPN promoter. B) Arrangement of the mouse RANKL gene locus and position of flanking genes. RANKL gene is transcribed on the reverse strand (right to left). C) DNA chip: Precipitated DNA was linearly amplified and then subjected to chip analysis using tiled oligonucleotide arrays containing 50-mers spanning the RANKL gene locus as described in the text. Hybridization data derived from the arrays are indicated in log2 scale across the locus with nucleotide positions on chromosome 14 indicated on the X axis. The first set of two arrays provide linear data comparing IgG (±1,25(OH)2D3) and VDR (±1,25(OH)2D3) over the RANKL upstream regions. The second set of three arrays provides an expanded view of hybridization data comparing VDR (±1,25(OH)2D3), VDR (+1,25(OH)2D3 vs input DNA) and RXR (+1,25(OH)2D3 vs input DNA). VDR/RXR binding regions D1-D5 are tracked by the shading.
(§2) As a first step, the inventors treated ST2 cells with either vehicle or 1,25(OH)2D3 for 6 hours, fixed the cells with formalin, and then subjected the cell lysates to ChIP analysis using antibodies to VDR, RXR, and an IgG control. […]

[4] = test system: mouse D5 region (TK-mRLD5); assay: TK-mRLD5 luciferase reporter in MG-63 cells; assay type: cell-based; conditions: 24 hours
[5] = test system: minimal RANKL promoter; assay: Mouse RANKL minimal promoter (-100 to +65) in pGL3, ST2 cells; assay type: cell-based; conditions: pGL3, without D5 insert
Source text: FIG. 9. The mouse RANKL D5 region is active in the context of the mouse RANKL gene minimal promoter. Mouse RL D5 was inserted upstream of a mouse RANKL gene promoter fragment (−100 to +65) in pGL3 and its inducible activity assessed in ST2 cells. […] Data are the average of triplicate determinations, SEM.
The activity of an enhancer must be evaluated in the context of its local environment, preferentially in the context of both other enhancers and its native promoter. In the case of the RANKL gene, however, this is clearly not possible due to the numbers and the distant locations of the potential regulatory regions. To tackle this problem, the inventors isolated approximately 800 to 1100 bp fragments of each region (D1 to D5) as identified through the ChIP/Chip analysis, cloned each into a luciferase expression vector under the control of a viral thymidine kinase (TK) minimal promoter, and explored the 1,25(OH)2D3- and GC-inducible activity of each following transfection into ST2 cells. […] Nevertheless, positive results provide added support for the potential regulatory capabilities of an individual DNA fragment even when examined in isolation. […] To ensure that the viral TK promoter background was not contributing to our evaluation, the inventors cloned the mouse RANKL promoter (−100 to +65) into pGL3, inserted RL D5 and evaluated its activity in ST2 cells as well.

[6] = test system: Cyp24 promoter; assay: ChIP of VDR/RXR at Cyp24 promoter in ST2 cells; assay type: cell-based, mouse; conditions: 10^-7 M, 6 hours
Method: as §1, §2

SMILES: C=C1/C(=C\C=C2/CCC[C@]3(C)[C@@H]([C@H](C)CCCC(C)(C)O)CC[C@@H]23)C[C@@H](O)C[C@@H]1O [1,25(OH)2D3]
- luciferase activity via D5 (RL-CCL), TK promoter [1]: typical and rather striking dose response
- RXR binding to the D5 region of the human RANKL gene [2]: also induced to bind
- VDR binding to the D5 region of the human RANKL gene [2]: induced
- abundance of OPN promoter DNA precipitated with VDR and RXR antibodies [3]: clearly increased the abundance of DNA
- activity of mouse D5 region [4]: induces
- response of minimal RANKL promoter [5]: unresponsive
- abundance of Cyp24 promoter DNA precipitated with VDR and RXR antibodies [6]: clearly increased the abundance of DNA
